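Method: 48-hour compound exposure of cells in 96-well plates, five concentrations, linear interpolation of endpoints. At the GI50, growth is halved.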 Activity calls are given as the source filed them. No stated cut-off is given here; in the data, active = GI50 up to about 1.1 µM and inactive = higher.
Experiments:
Test in all cases: NCI-60 cell line screen, 48 h
NCI-H226 = system: NCI-H226
KM12 = system: KM12
DMS-273 = system: DMS-273
RXF 631 = system: RXF 631
A549 = system: A549
OVCAR-8 = system: OVCAR-8
M19-MEL = system: M19-MEL
M14 = system: M14
DMS-114 = system: DMS-114
KM-20L2 = system: KM-20L2
LXFL 529 = system: LXFL 529
NCI-H23 = system: NCI-H23
OVCAR-4 = system: OVCAR-4
HCT-15 = system: HCT-15
NCI-H522 = system: NCI-H522
DLD-1 = system: DLD-1
SK-MEL-5 = system: SK-MEL-5
TK-10 = system: TK-10
SK-MEL-28 = system: SK-MEL-28
NCI-H460 = system: NCI-H460
RPMI-8226 = system: RPMI-8226
HT-29 = system: HT-29
IGROV-1 = system: IGROV-1
OVCAR-5 = system: OVCAR-5
HOP-62 = system: HOP-62
RXF 393 = system: RXF 393
UACC-257 = system: UACC-257
MOLT-4 = system: MOLT-4
786-0 = system: 786-0
SF-539 = system: SF-539
HCT-116 = system: HCT-116
XF498 = system: XF498
LOX IMVI = system: LOX IMVI
COLO 205 = system: COLO 205
SN12C = system: SN12C
CCRF-CEM = system: CCRF-CEM
SW-620 = system: SW-620
SR = system: SR
HOP-92 = system: HOP-92
K562 = system: K562
SF-295 = system: SF-295
SK-OV-3 = system: SK-OV-3
UO-31 = system: UO-31
HL-60 = system: HL-60
Malme-3M = system: Malme-3M
A498 = system: A498
SNB-75 = system: SNB-75
CAKI-1 = system: CAKI-1
SNB-19 = system: SNB-19
ACHN = system: ACHN
U-251 = system: U-251
SF-268 = system: SF-268
EKVX = system: EKVX
SK-MEL-2 = system: SK-MEL-2
SNB-78 = system: SNB-78
HOP-18 = system: HOP-18
UACC-62 = system: UACC-62
HCC 2998 = system: HCC 2998

In the case of `NNC(=S)N/N=C(\c1nc2ccc(Cl)cc2nc1O)C(O)c1ccc(Cl)cc1Cl` (stereo unspecified), the GI50 (NCI-H226) is reported as > 100 µM (inactive), the GI50 (KM12) is reported as > 100 µM (inactive) and the GI50 (DMS-273) is reported as > 100 µM (inactive). For the same compound, the GI50 (RXF 631) was > 100 µM (inactive), the GI50 (A549) was > 100 µM (inactive) and the GI50 (OVCAR-8) was > 100 µM (inactive). For the same compound, the GI50 (M19-MEL) was > 100 µM (inactive), the GI50 (M14) was > 100 µM (inactive) and the GI50 (DMS-114) was > 100 µM (inactive). For the same compound, the GI50 (KM-20L2) was > 100 µM (inactive), the GI50 (LXFL 529) was > 100 µM (inactive) and the GI50 (NCI-H23) was > 100 µM (inactive). For the same compound, the GI50 (OVCAR-4) was > 100 µM (inactive), the GI50 (HCT-15) was over 100 µM and the GI50 (NCI-H522) was > 100 µM (inactive). For the same compound, the GI50 (DLD-1) was > 100 µM (inactive), the GI50 (SK-MEL-5) was > 100 µM (inactive) and the GI50 (TK-10) was > 100 µM (inactive). For the same compound, the GI50 (SK-MEL-28) was > 100 µM (inactive), the GI50 (NCI-H460) was > 100 µM (inactive) and the GI50 (RPMI-8226) was > 100 µM (inactive). The GI50 (HT-29) was > 100 µM (inactive), the GI50 (IGROV-1) was > 100 µM (inactive) and the GI50 (OVCAR-5) was > 100 µM (inactive). For the same compound, the GI50 (HOP-62) was > 100 µM (inactive), the GI50 (RXF 393) was > 100 µM (inactive) and the GI50 (UACC-257) was > 100 µM (inactive). The GI50 (MOLT-4) was > 100 µM (inactive), the GI50 (786-0) was > 100 µM (inactive) and the GI50 (SF-539) was > 100 µM (inactive). The GI50 (HCT-116) was > 100 µM (inactive), the GI50 (XF498) was > 100 µM (inactive) and the GI50 (LOX IMVI) was > 100 µM (inactive). The GI50 (COLO 205) was > 100 µM (inactive), the GI50 (SN12C) was > 100 µM (inactive) and the GI50 (CCRF-CEM) was > 100 µM (inactive). For the same compound, the GI50 (SW-620) was > 100 µM (inactive), the GI50 (SR) was > 100 µM (inactive) and the GI50 (HOP-92) was > 100 µM (inactive). For the same compound, the GI50 (K562) was > 100 µM (inactive), the GI50 (SF-295) was > 100 µM (inactive) and the GI50 (SK-OV-3) was > 100 µM (inactive). The GI50 (UO-31) was > 100 µM (inactive), the GI50 (HL-60) was > 100 µM (inactive) and the GI50 (Malme-3M) was > 100 µM (inactive). The GI50 (A498) was > 100 µM (inactive), the GI50 (SNB-75) was > 100 µM (inactive) and the GI50 (CAKI-1) was > 100 µM (inactive). For the same compound, the GI50 (SNB-19) was > 100 µM (inactive), the GI50 (ACHN) was > 100 µM (inactive) and the GI50 (U-251) was > 100 µM (inactive). The GI50 (SF-268) was > 100 µM (inactive), the GI50 (EKVX) was > 100 µM (inactive) and the GI50 (SK-MEL-2) was > 100 µM (inactive). The GI50 (SNB-78) was > 100 µM (inactive), the GI50 (HOP-18) was > 100 µM (inactive) and the GI50 (UACC-62) was > 100 µM (inactive).
For `CCOC(=O)/C=C(\C)c1ccc(C)cc1C`, the GI50 (NCI-H226) was > 100 µM (inactive), the GI50 (KM12) was 72.3 µM (inactive) and the GI50 (DMS-273) was > 100 µM (inactive). For the same compound, the GI50 (RXF 631) was > 100 µM (inactive), the GI50 (A549) was > 100 µM (inactive) and the GI50 (OVCAR-8) was > 100 µM (inactive). The GI50 (M14) was > 100 µM (inactive), the GI50 (DMS-114) was > 100 µM (inactive) and the GI50 (KM-20L2) was > 100 µM (inactive). The GI50 (LXFL 529) was 14.6 µM (inactive), the GI50 (NCI-H23) was 45.4 µM (inactive) and the GI50 (OVCAR-4) was > 100 µM (inactive). The GI50 (HCT-15) was 29.9 µM, the GI50 (DLD-1) was 15.7 µM (inactive) and the GI50 (SK-MEL-5) was 34.3 µM (inactive). The GI50 (TK-10) was 33.8 µM (inactive), the GI50 (SK-MEL-28) was 21.9 µM (inactive) and the GI50 (NCI-H460) was > 100 µM (inactive). The GI50 (RPMI-8226) was 7.28 µM (inactive), the GI50 (HT-29) was > 100 µM (inactive) and the GI50 (IGROV-1) was > 100 µM (inactive). The GI50 (OVCAR-5) was > 100 µM (inactive), the GI50 (RXF 393) was 14.4 µM (inactive) and the GI50 (UACC-257) was > 100 µM (inactive). The GI50 (HCC 2998) was > 100 µM (inactive), the GI50 (MOLT-4) was > 100 µM (inactive) and the GI50 (SF-539) was > 100 µM (inactive). The GI50 (HCT-116) was > 100 µM (inactive), the GI50 (XF498) was 23.4 µM (inactive) and the GI50 (LOX IMVI) was 16.3 µM (inactive). For the same compound, the GI50 (COLO 205) was > 100 µM (inactive), the GI50 (SN12C) was 39.8 µM (inactive) and the GI50 (CCRF-CEM) was 49.2 µM (inactive). For the same compound, the GI50 (SW-620) was 17.8 µM (inactive), the GI50 (SR) was 4.46 µM (inactive) and the GI50 (HOP-92) was 29.8 µM (inactive). For the same compound, the GI50 (K562) was 45.1 µM (inactive), the GI50 (SF-295) was > 100 µM (inactive) and the GI50 (UO-31) was > 100 µM (inactive). The GI50 (HL-60) was 2.89 µM (inactive), the GI50 (Malme-3M) was 26.1 µM (inactive) and the GI50 (A498) was > 100 µM (inactive). For the same compound, the GI50 (SNB-75) was 75.3 µM (inactive), the GI50 (CAKI-1) was > 100 µM (inactive) and the GI50 (SNB-19) was > 100 µM (inactive). For the same compound, the GI50 (ACHN) was > 100 µM (inactive), the GI50 (U-251) was > 100 µM (inactive) and the GI50 (SF-268) was > 100 µM (inactive). For the same compound, the GI50 (EKVX) was > 100 µM (inactive), the GI50 (SK-MEL-2) was 45.2 µM (inactive) and the GI50 (SNB-78) was 38.1 µM (inactive). The GI50 (HOP-18) was 45 µM (inactive).
For `COC(=O)C(C(=O)C(=O)Nc1cccc(OC)c1)c1cnc2ccccc2n1` (stereo unspecified), the GI50 (NCI-H226) was > 100 µM (inactive), the GI50 (KM12) was > 100 µM (inactive) and the GI50 (DMS-273) was > 100 µM (inactive). For the same compound, the GI50 (RXF 631) was > 100 µM (inactive), the GI50 (A549) was 66.8 µM (inactive) and the GI50 (OVCAR-8) was > 100 µM (inactive). The GI50 (M14) was > 100 µM (inactive), the GI50 (DMS-114) was > 100 µM (inactive) and the GI50 (KM-20L2) was > 100 µM (inactive). For the same compound, the GI50 (LXFL 529) was > 100 µM (inactive), the GI50 (NCI-H23) was > 100 µM (inactive) and the GI50 (OVCAR-4) was > 100 µM (inactive). The GI50 (HCT-15) was over 100 µM, the GI50 (NCI-H522) was > 100 µM (inactive) and the GI50 (DLD-1) was > 100 µM (inactive). The GI50 (SK-MEL-5) was > 100 µM (inactive), the GI50 (TK-10) was > 100 µM (inactive) and the GI50 (SK-MEL-28) was > 100 µM (inactive). The GI50 (NCI-H460) was > 100 µM (inactive), the GI50 (RPMI-8226) was > 100 µM (inactive) and the GI50 (HT-29) was > 100 µM (inactive). For the same compound, the GI50 (IGROV-1) was > 100 µM (inactive), the GI50 (OVCAR-5) was > 100 µM (inactive) and the GI50 (HOP-62) was > 100 µM (inactive). The GI50 (RXF 393) was 46.1 µM (inactive), the GI50 (UACC-257) was > 100 µM (inactive) and the GI50 (HCC 2998) was > 100 µM (inactive). For the same compound, the GI50 (MOLT-4) was > 100 µM (inactive), the GI50 (786-0) was > 100 µM (inactive) and the GI50 (SF-539) was > 100 µM (inactive). For the same compound, the GI50 (HCT-116) was 29.3 µM (inactive), the GI50 (XF498) was > 100 µM (inactive) and the GI50 (LOX IMVI) was > 100 µM (inactive). For the same compound, the GI50 (COLO 205) was > 100 µM (inactive), the GI50 (SN12C) was > 100 µM (inactive) and the GI50 (CCRF-CEM) was > 100 µM (inactive). The GI50 (SW-620) was > 100 µM (inactive), the GI50 (SR) was > 100 µM (inactive) and the GI50 (HOP-92) was > 100 µM (inactive). For the same compound, the GI50 (K562) was > 100 µM (inactive), the GI50 (SF-295) was > 100 µM (inactive) and the GI50 (SK-OV-3) was > 100 µM (inactive). For the same compound, the GI50 (UO-31) was > 100 µM (inactive), the GI50 (HL-60) was > 100 µM (inactive) and the GI50 (Malme-3M) was > 100 µM (inactive). For the same compound, the GI50 (A498) was > 100 µM (inactive), the GI50 (SNB-75) was > 100 µM (inactive) and the GI50 (CAKI-1) was > 100 µM (inactive). For the same compound, the GI50 (SNB-19) was > 100 µM (inactive), the GI50 (ACHN) was > 100 µM (inactive) and the GI50 (U-251) was > 100 µM (inactive). For the same compound, the GI50 (SF-268) was > 100 µM (inactive), the GI50 (EKVX) was > 100 µM (inactive) and the GI50 (SK-MEL-2) was > 100 µM (inactive). For the same compound, the GI50 (SNB-78) was > 100 µM (inactive), the GI50 (HOP-18) was > 100 µM (inactive) and the GI50 (UACC-62) was > 100 µM (inactive).

From ChEMBL document CHEMBL1201862, “PubChem BioAssay data set” (2004)
